Square brackets hold non-standard residues; d marks the D form. Peptide text beside a SMILES is read from it. * marks the point of attachment. ξ: configuration not given here. Cbz = O=C(OCc1ccccc1)*; ξDap = NCC(N)C(=O)O
Legend:
Genome polyprotein = Genome polyprotein (rhinovirus B14, UniProt P03303); experiment: Inhibition of Human rhinovirus serotype 14 3C protease preincubated for 1 hr followed by Cys(PT14M)-Ala-Ile-Phe-Gln'Gly-Pro-Asp-Phe(4-NH2)-OH substrate addition measured after 1 hr by fluorescence lifetime readout assay
rhinovirus B14 = experiment: Antiviral activity against Human rhinovirus serotype 14 infected in human HeLa cells assessed as reduction in virus-induced cytopathic effect by measuring reduction in host cell viability preincubated with cells for 6 hrs followed by viral infection measured up to 72 hrs by CellTiter-Glo luminescence assay; format: functional, organism-based; details: Rhinovirus B

Chain of Genome polyprotein (P03303 1538-1719 limits assumed): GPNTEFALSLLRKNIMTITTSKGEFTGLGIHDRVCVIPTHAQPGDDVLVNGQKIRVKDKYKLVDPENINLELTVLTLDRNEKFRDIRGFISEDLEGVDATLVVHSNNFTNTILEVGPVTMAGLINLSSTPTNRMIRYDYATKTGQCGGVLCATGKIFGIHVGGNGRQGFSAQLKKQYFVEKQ

| IC50 (Genome polyprotein) [nM] | Structure (SMILES) | EC50 (rhinovirus B14) [nM] |
| --- | --- | --- |
| 7370 | Cc1cc(C(=O)N[C@H]2CCCCN(C)C(=O)CC[C@@H](C=O)NC(=O)[C@@H]3C[C@@H](c4ccccc4)CN3C2=O)no1 | 28600 |
| 2 | Cc1cc(C(=O)N[C@H]2CCCNC(=O)[C@H]3CCN(C3)C(=O)CC[C@@H](C=O)NC(=O)[C@H](Cc3ccc(F)cc3)NC2=O)no1 | > 50000 |
| 35 | Cc1cc(C(=O)N[C@H]2CCCCN(C)C(=O)CC[C@@H](C(=O)C(=O)N3CCC3)NC(=O)[C@H](Cc3ccc(F)cc3)NC2=O)no1 | 6100 |
| 3200 | Cc1cc(C(=O)N[C@H]2CCCCNC(=O)CC[C@@H](C=O)NC(=O)[C@H](Cc3ccc(F)cc3)NC2=O)no1 | > 50000 |
| 3840 | CCOC(=O)/C=C/[C@@H]1CCC(=O)N(C)CCCC[C@H](NC(=O)c2cc(C)on2)C(=O)N[C@@H](Cc2ccc(F)cc2)C(=O)N1 | > 50000 |
| 753 | Cc1cc(C(=O)N[C@@H]2C(=O)N[C@@H](Cc3ccc(F)cc3)C(=O)N[C@H](C=O)CCC(=O)NCc3cccc2c3)no1 | 21900 |
| 6 | Cc1cc(C(=O)N[C@H]2CNC(=O)[C@H]3CCCN3C(=O)CC[C@@H](C=O)NC(=O)[C@H](Cc3ccc(F)cc3)NC2=O)no1 | 33500 |
| 63 | Cc1cc(C(=O)N[C@H]2CCCCN(C)C(=O)CC[C@@H](C=O)NC(=O)[C@H](Cc3ccc(F)cc3)NC2=O)no1 | 3400 |
| 2 | Cc1cc(C(=O)N[C@H]2CNC(=O)C[C@H]3CCCN3C(=O)CC[C@@H](C=O)NC(=O)[C@H](Cc3ccc(F)cc3)NC2=O)no1 | 29100 |
| 8 | Cc1cc(C(=O)N[C@@H]2C(=O)N[C@@H](Cc3ccc(F)cc3)C(=O)N[C@H](C=O)CCC(=O)N(C)Cc3cccc2c3)no1 | 568 |
| 2 | Cc1cc(C(=O)N[C@H]2C/C=C/CCCO[C@H]3CCN(C3)C(=O)CC[C@@H](C=O)NC(=O)[C@H](Cc3ccc(F)cc3)NC2=O)no1 | 2050 |
| 18 | Cc1cc(C(=O)N[C@H]2CNC(=O)CN(C)C(=O)CC[C@@H](C=O)NC(=O)[C@H](Cc3ccc(F)cc3)NC2=O)no1 | > 50000 |
| 3 | Cc1cc(C(=O)N[C@H]2C/C=C/CO[C@H]3CCN(C3)C(=O)CC[C@@H](C=O)NC(=O)[C@H](Cc3ccc(F)cc3)NC2=O)no1 | 5740 |
| 7 | CC(=O)NCC(C=O)NC(=O)[C@H](Cc1ccccc1)NC(=O)[C@H](CC(C)C)NC(=O)OCc1ccccc1 (stereo partly drawn) (Cbz-Leu-Phe-[ξDap](Ac)-aldehyde) | 1760 |

Source: ChEMBL document CHEMBL4184282, “Structure-based design and synthesis of macrocyclic human rhinovirus 3C protease inhibitors” (Bioorg Med Chem Lett, 2018)
